System: Peripheral blood mononuclear cells (PBMC)
Experiment: FTIR monitoring of lymphocyte activation
Format: cell-based, human
Experimental: Peripheral blood mononuclear cells (PBMC) from two volunteers, isolated using gradient mixtures were twice washed in 0.9% saline and centrifuged. The resulting pellets were resuspended in 1 ml of saline. One half of each sample was activated with phorbol myristate acetate (PMA) and the other half used as a control. After 15 minutes the four portions were desiccated and transferred to a infrared cell for FTIR microanalysis. For each portion six spectra were recorded.

[1] = PMA activated vs non-activated lymphocytes, 15 minutes

With `CCCCCCCCCCCCCC(=O)O[C@@H]1[C@@H](C)[C@@]2(O)[C@@H](C=C(CO)C[C@]3(O)C(=O)C(C)=C[C@@H]23)[C@@H]2C(C)(C)[C@]12OC(C)=O` [PMA, phorbol myristate acetate] the “FTIR spectra of activated vs non-activated lymphocytes” value (PBMC from two volunteers, PMA activation 15 minutes, desiccated, FTIR microanalysis) was “marked differences”, the “amide II band” value (PMA activated lymphocytes, 15 minutes) was “multitude of shoulder peaks” and the “C—O stretch of fatty acyl groups (1400 cm-1) and C—O stretches of glycogen bands at 1058 and 1038 cm-1” value [1] was “much more intense”. For the same compound, the “amide I β-pleated sheet component band at 1634 cm-1” value [1] was “increase” and the “α-helical amide I band” value [1] was “reduction”.

Source: patent publication US6642012B1, “Spectroscopic determination of characteristic of biological material” (priority 1996, dated 2003)
